Assay results reported in article PMC11093982, “Structural and mechanistic insights into Quinolone Synthase to address its functional promiscuity” (Communications Biology, 2024).
Where two headings read alike, the source gives them in different places.

Target: AmQNS (quinolone synthase) (Aegle marmelos, UniProt M1HE54)
Assay: Surface plasmon resonance (SPR) AmQNS-substrate interaction studies
Format: binding
Conditions: for association rate constant (kon): SPR association rate; for dissociation rate constant (koff): SPR dissociation rate
From the text: ProteOn XPR array system[21] and ‘GLM’ sensor chip was used for the SPR interaction studies. […] Here, amine coupling works, where the amine groups present in the AmQNS covalently bind to the chemically activated carboxyl groups of the dextran molecules. Channel L3 and L4 were used for immobilization of protein while L2 was used as reference. The extent of non-specific interactions was eliminated or reduced by optimizing the buffer conditions. […] N-methylanthraniloyl-CoA was purchased from TransMIT (Plant MetaChem, www.plantmetachem.com), whereas all other substrates were purchased from Sigma-Aldrich (www.sigmaaldrich.com).
Following AmQNS immobilization and its stability screening, all binding studies were done at 30 °C. The SPR-based system measures the changes in refractive index to investigate the direct interaction between AmQNS and different CoA substrates. […] In our experiments, AmQNS was captured on the surface of the GLM sensor chip and used to screen the preferred substrates (acyl-CoA’s) in the presence and absence of malonyl-CoA. […] The sensogram was prepared by processing the data (after subtraction of L2 responses (reference channel). Baseline drift due to the bulk refractive index change, non-specific binding, matrix effects and injection noise were also corrected using the reference spots. Further, the responses obtained from the AmQNS-small molecular interactions at different concentrations were fitted using the Langmuir 1:1 biomolecular interaction model using the ProteOn Manager software version 3.1.0.6 (Bio-Rad, USA). Equilibrium dissociation constants (KD) were calculated from the ratio of the association and dissociation rates.

[1] = AmQNS immobilized on GLM chip, 30 °C, Langmuir 1:1 model
[2] = SPR, AmQNS immobilized on GLM chip, 30 °C, Langmuir 1:1 model, read-out: KD (KD= kd /ka)
[3] = SPR, AmQNS immobilized on GLM chip, 30 °C, in presence of malonyl-CoA, Langmuir 1:1 model, read-out: KD

Chain of AmQNS (quinolone synthase) (M1HE54 entry or part of it): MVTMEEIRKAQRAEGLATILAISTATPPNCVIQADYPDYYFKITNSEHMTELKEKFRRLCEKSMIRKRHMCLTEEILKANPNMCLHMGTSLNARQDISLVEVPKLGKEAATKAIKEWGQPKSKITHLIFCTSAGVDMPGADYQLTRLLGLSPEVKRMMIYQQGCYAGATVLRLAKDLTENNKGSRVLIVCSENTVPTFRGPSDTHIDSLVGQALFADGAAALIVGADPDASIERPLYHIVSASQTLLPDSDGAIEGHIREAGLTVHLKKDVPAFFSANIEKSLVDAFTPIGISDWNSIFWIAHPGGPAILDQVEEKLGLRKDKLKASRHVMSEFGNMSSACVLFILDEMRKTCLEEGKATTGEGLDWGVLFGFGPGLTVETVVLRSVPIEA

`CC(C)(COP(=O)(O)OP(=O)(O)OC[C@H]1O[C@@H](n2cnc3c(N)ncnc32)[C@H](O)[C@@H]1OP(=O)(O)O)[C@@H](O)C(=O)NCCC(=O)NCCSC(=O)c1ccccc1` [Benzoyl-CoA] was tested, and the “association rate constant (kon)” value [1] was 9510 M⁻¹ s⁻¹, the “dissociation rate constant (koff)” value [1] was 0.0267 s⁻¹ and the Kd [2] was 2800 nM.

For `CCCC(=O)SCCNC(=O)CCNC(=O)[C@H](O)C(C)(C)COP(=O)(O)OP(=O)(O)OC[C@H]1O[C@@H](n2cnc3c(N)ncnc32)[C@H](O)[C@@H]1OP(=O)(O)O` [Butyryl-CoA], the Kd was 1370 nM, the “association rate constant (kon)” value [1] was 36100 M⁻¹ s⁻¹ and the “dissociation rate constant (koff)” value [1] was 0.0495 s⁻¹.

For `COc1cc(/C=C/C(=O)SCCNC(=O)CCNC(=O)[C@H](O)C(C)(C)COP(=O)(O)OP(=O)(O)OC[C@H]2O[C@@H](n3cnc4c(N)ncnc43)[C@H](O)[C@@H]2OP(=O)(O)O)ccc1O` [Feruloyl-CoA], the “association rate constant (kon)” value [1] was 1e+08 M⁻¹ s⁻¹, the “dissociation rate constant (koff)” value [1] was 0.983 s⁻¹ and the Kd [3] was 9.83 nM.

In the case of `CCCCCC(=O)SCCNC(=O)CCNC(=O)[C@H](O)C(C)(C)COP(=O)(O)OP(=O)(O)OC[C@H]1O[C@@H](n2cnc3c(N)ncnc32)[C@H](O)[C@@H]1OP(=O)(O)O` [Hexanoyl-CoA], the “association rate constant (kon)” value [1] is reported as 963000 M⁻¹ s⁻¹, the “dissociation rate constant (koff)” value [1] is reported as 0.00703 s⁻¹ and the Kd [3] is reported as 7.3 nM.

`CC(C)(COP(=O)(O)OP(=O)(O)OC[C@H]1O[C@@H](n2cnc3c(N)ncnc32)[C@H](O)[C@@H]1OP(=O)(O)O)[C@@H](O)C(=O)NCCC(=O)NCCSC(=O)CC(=O)O` [Malonyl-CoA] was tested, and the “association rate constant (kon)” value [1] was 78200 M⁻¹ s⁻¹, the “dissociation rate constant (koff)” value [1] was 0.0134 s⁻¹ and the Kd [2] was 172 nM.

With `CCCCCCCCCCCCCC(=O)SCCNC(=O)CCNC(=O)[C@H](O)C(C)(C)COP(=O)(O)OP(=O)(O)OC[C@H]1O[C@@H](n2cnc3c(N)ncnc32)[C@H](O)[C@@H]1OP(=O)(O)O` [Myristoyl-CoA] the “association rate constant (kon)” value [1] was 13000 M⁻¹ s⁻¹ and the “dissociation rate constant (koff)” value [1] was 0.00404 s⁻¹.

With `CNc1ccccc1C(=O)SCCNC(=O)CCNC(=O)[C@H](O)C(C)(C)COP(=O)(O)OP(=O)(O)OC[C@H]1O[C@@H](n2cnc3c(N)ncnc32)[C@H](O)[C@@H]1OP(=O)(O)O` [N-methylanthraniloyl-CoA] the “association rate constant (kon)” value [1] was 1e+08 M⁻¹ s⁻¹, the “dissociation rate constant (koff)” value [1] was 0.204 s⁻¹ and the Kd [3] was 2.04 nM.

In the case of `CCCCCCCCCCCCCCCC(=O)SCCNC(=O)CCNC(=O)[C@H](O)C(C)(C)COP(=O)(O)OP(=O)(O)OC[C@H]1O[C@@H](n2cnc3c(N)ncnc32)[C@H](O)[C@@H]1OP(=O)(O)O` [Palmitoyl-CoA], the “association rate constant (kon)” value [1] is reported as 45800 M⁻¹ s⁻¹, the “dissociation rate constant (koff)” value [1] is reported as 0.00417 s⁻¹ and the Kd [2] is reported as 91.1 nM.

`COc1cc(/C=C/C(=O)SCCNC(=O)CCNC(=O)[C@H](O)C(C)(C)COP(=O)(O)OP(=O)(O)OC[C@H]2O[C@@H](n3cnc4c(N)ncnc43)[C@H](O)[C@@H]2OP(=O)(O)O)cc(OC)c1O` [Sinapoyl-CoA] was tested, and the “association rate constant (kon)” value [1] was 141000 M⁻¹ s⁻¹, the “dissociation rate constant (koff)” value [1] was 0.0163 s⁻¹ and the Kd [2] was 116 nM.

With `CCCCCCCCCCCCCCCCCC(=O)SCCNC(=O)CCNC(=O)[C@H](O)C(C)(C)COP(=O)(O)OP(=O)(O)OC[C@H]1O[C@@H](n2cnc3c(N)ncnc32)[C@H](O)[C@@H]1OP(=O)(O)O` [Stearoyl-CoA] the “association rate constant (kon)” value [1] was 11700 M⁻¹ s⁻¹, the “dissociation rate constant (koff)” value [1] was 0.00193 s⁻¹ and the Kd [2] was 164 nM.

With `CC(C)(COP(=O)(O)OP(=O)(O)OC[C@H]1O[C@@H](n2cnc3c(N)ncnc32)[C@H](O)[C@@H]1OP(=O)(O)O)[C@@H](O)C(=O)NCCC(=O)NCCSC(=O)/C=C/c1ccc(O)cc1` [p-coumaroyl CoA] the “association rate constant (kon)” value [1] was 591000 M⁻¹ s⁻¹, the “dissociation rate constant (koff)” value [1] was 0.0595 s⁻¹ and the Kd [2] was 101 nM.
